# US5232924A, “Heterocyclic compound having serotonine 2-receptor antagonistic activity” (Daiichi Pharmaceutical Co., Ltd., priority 1989, dated 1993)
# Structures can show the parent of a compound that is named as a salt.
# How the values were obtained:
# Serotonin 2-Receptor = target: T1, Serotonin 2-Receptor (Rattus norvegicus, UniProt P14842); assay: Antagonistic activity on serotonin 2-receptor: inhibition of the serotonin-induced increase in blood pressure in anesthetized rats; format: in vivo; conditions: SD-SLC male rat, 10 mg/kg p.o.; after 60 minutes from the administration; inhibition of blood pressure increase by serotonin 300 μg/kg i.v.
# T1 construct: from tissue; host or cells: intact anesthetized SD-SLC male rat (vascular response)
# Procedure: A test compound dissolved in purified water was orally administered to an SD-SLC male rat at a dose of 10 mg/kg. After 30 minutes from the administration, the rat was anesthetized with urethane (1 g/kg, i.p.) and α-Chloralose (80 mg/kg, i.p.). A polyethylene cannula was inserted into the carotid artery, and the blood pressure was recorded on a polygraph by using a pressure transducer. After 60 minutes or 180 minutes from the administration of the test compound, 300 μg/kg of serotonin was intravenously injected, and an increase in blood pressure was observed. Serotonin 2 (hereinafter referred to as […]) antagonistic activity of the test compound was calculated as a percentage of inhibition of an increase in blood pressure induced by […]. The inhibitory effect of the test compound wa compared with that of vehicle solution treated group.
# [1] = test system: Sympathetic Nerve α1 -Receptor; assay: Antagonistic activity on sympathetic nerve α1-receptor: inhibition of the phenylephrine-induced increase in blood pressure in anesthetized rats; format: in vivo; conditions: SD-SLC male rat, 10 mg/kg p.o.; after 60 minutes from the administration; inhibition of blood pressure increase by phenylephrine 100 μg/kg i.v.
# Procedure: A test compound dissolved in purified water was orally administered to an SD-SLC male rat at a dose of 10 mg/kg. After 30 minutes from the administration, the rat was anesthetized with urethane (1 g/kg, i.p.) and α-Chloralose (80 mg/kg, i.p.). A polyethylene cannula was inserted into the carotid artery, and the blood pressure was recorded on a polygraph by using a pressure transducer. After 60 minutes from the administration of the test compound, 100 μg/kg of phenylephrine was intravenously injected to observe an increase in blood pressure. Sympathetic nerve α1 -receptor antagonistic activity of the test compound was calculated as a percentage of inhibition of an increase in blood pressure induced by phenylephrine. The inhibitory effect of the test compound was compared with that of vehicle solution treated group.
# ddy male mice = assay: Toxicity in mice, repeated oral administration; format: in vivo, mouse; conditions: ddy male mice, 200 mg/kg p.o. once a day for consecutive 4 days; dead animals per group
# Procedure: A test compound dissolved or suspended in a 1% methyl cellulose solution was orally administered to ddy male mice (4 or 5 mice per group) at a dose of 200 mg/kg once a day for consecutive 4 days. The number of dead animals per group was counted on the day next to the final administration day. As a control, 10 mλ/kg of 1% methyl cellulose solution was orally administered.
# T1 sequence (P14842 whole entry): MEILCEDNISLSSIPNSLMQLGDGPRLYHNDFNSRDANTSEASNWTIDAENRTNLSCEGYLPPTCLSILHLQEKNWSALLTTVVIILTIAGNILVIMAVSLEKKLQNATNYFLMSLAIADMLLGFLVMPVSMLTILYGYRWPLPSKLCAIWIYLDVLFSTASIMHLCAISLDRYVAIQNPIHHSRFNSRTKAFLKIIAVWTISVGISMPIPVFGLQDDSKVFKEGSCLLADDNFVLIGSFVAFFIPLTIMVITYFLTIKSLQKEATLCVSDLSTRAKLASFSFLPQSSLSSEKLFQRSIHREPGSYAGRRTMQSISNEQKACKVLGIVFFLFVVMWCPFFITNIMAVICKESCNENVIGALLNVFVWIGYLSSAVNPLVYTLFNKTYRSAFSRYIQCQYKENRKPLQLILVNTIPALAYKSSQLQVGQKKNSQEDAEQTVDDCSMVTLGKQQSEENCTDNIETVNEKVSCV
SMILES,Antagonistic Activity 5-HT2 (%) (Serotonin 2-Receptor),Antagonistic Activity α1 (%) [1],Toxicity (Death Rate) (ddy male mice)
"O=C(O)/C=C\C(=O)O.O=C(c1ccc(F)cc1)[C@@H]1CCN(CCn2nc3n(c2=O)CCCC3)C[C@H]1c1ccc(F)cc1 (relative stereo) [Example 67, 2-[2-[trans-3-(4-Fluorophenyl)-4-(4-fluorobenzoyl)piperidin-1-yl]ethyl]-5,6,7,8-tetrahydro-3H-1,2,4-triazolo[4,3-a]pyridin-3(2H)-one Maleate]",90%,4%,
"O=C(c1ccc(F)cc1)C1(O)CCN(CCn2c(=O)nc3n(c2=O)CCCC3)CC1 [Example 11, 3-[2-[4-(4-Fluorobenzoyl)-4-hydroxy-piperidin-1-yl]ethyl]-6,7,8,9-tetrahydro-2H-pyrido[1,2-a-]-1,3,5-triazine-2,4(3H)-dione Dihydrochloride Hemihydrate]",83%,0%,
"Cl.Cl.O=c1nc2n(c(=O)n1CCN1CCC(=C(c3ccc(F)cc3)c3ccc(F)cc3)CC1)CCCC2 [Example 18, 3-[2-[4-[Bis(4-fluorophenyl)methylene]-piperidin-1-yl]ethyl]-6,7,8,9-tetrahydro-2H-pyrido-[1,2-a]-1,3,5-triazine-2,4(3H)-dione Dihydrochloride]",93%,6%,0/5
"Cl.Cl.O=c1nc2n(c(=O)n1CCN1CCC(=C(c3ccc(F)cc3)c3ccc(F)cc3)CC1)CCC2 [Example 20, 3-[2-[4-[Bis(4-fluorophenyl)methylene]-piperidin-1-yl]ethyl]-7,8-dihydro-2H,6H-pyrrolo[1,2-a]-1,3,5-triazine-2,4(3H)-dione Dihydrochloride]",83%,1%,
"O=c1nc2sccn2c(=O)n1CCN1CCC(=C(c2ccc(F)cc2)c2ccc(F)cc2)CC1 [Example 21, 3-[2-[4-[Bis(4-fluorophenyl)methylene]piperidin-1-yl]ethyl]-2H-thiazolo-[3.2-a]-1,3,5-triazine-2,4(3H)-dione Hydrochloride]",93%,3%,
"O=c1n(CCN2CCC(=C(c3ccc(F)cc3)c3ccc(F)cc3)CC2)nc2n1CCCCC2 [Example 34, 2-[2-[4-[Bis(4-fluorophenyl)methylene]piperidin-1-yl]ethyl]-2,5,6,7,8,9-hexahydro-3H-1,2,4-triazolo[4,3-a]azepin-3-one Hydrochloride Hemihydrate]",90%,3%,1/4
"CCO.Cl.O=c1n(CCN2CCC(=C(c3ccccc3)c3ccc(F)cc3)CC2)nc2n1CCCCC2 [Example 36, 2-[2-[4-[(4-Fluorophenyl)(phenyl)methylene]piperidin-1-yl]ethyl]-2,5,6,7,8,9-hexahydro-3H-1,2,4-triazolo[4,3-a]azepin-3-one Hydrochloride Ethanolate]",84%,3%,0/5
"O=c1n(CCN2CCC(=C(c3ccc(F)cc3)c3ccc(F)cc3)CC2)nc2n1CCCO2 [Example 44, 2-[2-[4-Bis(4-fluorophenyl)methylene]piperidin-1-yl]ethyl]-6,7-dihydro-5H-1,2,4-triazolo[3.4-b1-1,3-oxazin-3(2H)-one Hydrochloride Hemihydrate]",89%,2%,2/5
"Cl.O=C(c1ccc(F)cc1)C1(O)CCN(CCn2nc3n(c2=O)CCCC3)CC1 [Example 63, 2-[2-[4-(4-Fluorobenzoyl)-4-hydroxypiperidin-1-yl]ethyl]-5,6,7,8-tetrahydro-1,2,4-triazolo[4,3-a]pyridin-3(2H)-one Hydrochloride]",85%,0%,
